Target: T1, MAGE-A11:PCF11 interaction (GST-MAGE-A11 and FAM-PCF11_4) (Homo sapiens, UniProt P43364)
T1 construct: GST-MAGE-A11 MHD (human MAGE-A11 MHD amino acid 218-429); made in house; host or cells: E. coli BL21(DE3)
T1 sequence (P43364 218-429): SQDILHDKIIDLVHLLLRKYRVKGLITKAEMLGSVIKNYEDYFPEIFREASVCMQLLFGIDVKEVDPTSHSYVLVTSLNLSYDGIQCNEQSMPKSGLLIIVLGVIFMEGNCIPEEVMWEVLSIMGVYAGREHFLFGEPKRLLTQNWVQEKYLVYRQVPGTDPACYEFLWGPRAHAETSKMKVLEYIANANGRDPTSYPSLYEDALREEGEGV
Assay: TR-FRET primary / single point screen at 15 µM
Assay type: binding
Description: The TR-FRET assay buffer with a formula of 50 mM Tris pH 7.5, 20 mM MgCl2, 0.1 mg/ml BSA and 1 mM DTT was freshly prepared before each experiment. All TR-FRET assays were performed in black 384-well plates with 20 µl/well assay volume in the TR-FRET assay buffer at room temperature (~25 °C). All peptides or compounds were solubilized in DMSO. To test the competitive activity of peptides or compounds against the interaction between GST-MAGE-A11 MHD and FAM-PCF11_4 peptide, 10 µl/well peptide or compound at specified concentration was dispensed into a black 384-well low volume plate, followed by 5 µl/well FAM-PCF11_4 (800 nM), 5 µl/well Tb-anti-GST (20 nM), and GST-MAGE-A11 MHD (20 nM). The assay components in each well was then mixed by shaking the plate on an IKA MTS 2/4 digital microtiter plate shaker (IKA Works; Wilmington, NC, USA) for 1 min. The plate was further centrifuged in an Eppendorf 5810 centrifuge with an A-4-62 swing-bucket rotor (Eppendorf AG, Hamburg, Germany) at 201 g for 30 s. The plate was then incubated for 90 min with a lid to avoid light exposure to the assay components. After incubation, the fluorescent emission signals at 520 nm and 490 nm channels of individual wells were measured with a PHERAstar FS plate reader (BMG Labtech; Durham, NC, USA) by using a 340 nm excitation filter, 100 µs delay time, and 200 µs integration time. The TR-FRET fluorescence emission ratio (TR-FRET signal) for each well was presented as 10,000 × 520 nm/490 nm, which was used directly for curve fitting, or further converted to %Inhibition based on the respective positive and negative controls. The graphic software GraphPad Prism 4.81 (GraphPad Software; La Jolla, CA, USA) was used to generate curves and derive IC50 values of tested peptides or compounds, if applicable. TR-FRET screen for identifying MAGE-A11 small molecule inhibitors was performed as follows. The primary one-concentration screening and subsequent 10 or 20-concentration dose-response tests were accomplished with an automated High Throughput Screening system (HighRes Biosolutions, Beverly, MA)[30]. In the primary screening, 15 µl/well FAM-PCF11_4 (267 nM) was first dispensed with a Multidrop Combi Reagent Dispenser (Thermo Fisher Scientific, Waltham, MA) to black 384-well low-volume assay plates. The plates were spun down with a Velocity11 VSpin microplate centrifuge (Agilent Technologies, Santa Clara, CA). In total, 30 nl/well of 10 mM compound/DMSO solutions, or DMSO alone, were transferred from compound plates (the St. Jude FDA drug and bioactive library, Drug-like library and Lead-like library) or a control plate to the assay plates with a Pin Tool (V&P Scientific, San Diego, CA). The compounds were arrayed in columns 3–12 and columns 15–24 of compound plates. The controls were arrayed in columns 1, 2, 13, and 14 of a compound plate. In all, 5 µl/well Tb-anti-GST (20 nM) and GST-MAGE-A11 (20 nM) or 5 µl/well Tb-anti-GST (20 nM) alone was then dispensed to selected wells with a Multidrop Combi Reagent Dispenser. The final assay volume was 20 µl/well. […] The final tested compound concentration was 15 µM. The final FAM-PCF11_4 concentration was 200 nM and the final Tb-anti-GST concentration was 5 nM. The final GST-MAGE-A11 concentration was 5 nM except for those selected positive control wells in which GST-MAGE-A11 was not presented. The plates were then shaken with a big bear shaker (Big Bear Automation, Santa Clara, California) and spun down with the Velocity11 VSpin microplate centrifuge for 20 s. The plates were then incubated at room temperature in a Liconic incubator (Liconic US, Woburn, MA) for 90 min. The TR-FRET signals for individual wells were measured with a PHERAstar FS plate reader. The %Inhibition of each tested inhibitor was calculated by using Eq. 1. Those inhibitors with %Inhibition >30% in the primary screening were selected for further dose-response test, along with additional newly synthesized compounds. […]

[1] = single point TR-FRET screening of quinoline compounds against MAGE-A11:PCF11, 15 µM
[2] = single point TR-FRET screening of 797 quinoline compounds against MAGE-A11:PCF11

| percent inhibition (TR-FRET) [1] | percent inhibition (TR-FRET) [2] | Structure (SMILES) |
| --- | --- | --- |
| 9.225 | – | CC(C)(C)CCNCCCNc1ccnc2cc(Cl)ccc12 [SJ000521026] |
| – | 2.503 | CCCCN(CCCC)CC(=O)Nc1c2c(nc3ccccc13)N(C)CC2 [SJ000331523] |
| – | -366.222 | COc1ccc2nc3cc(Cl)ccc3c(NCCCNCc3cccc(F)c3)c2c1 [SJ000521004] |
| 13.2411 | – | Clc1ccc2c(NCCCN(CCOCc3ccccc3)Cc3ccccc3)ccnc2c1 [SJ000357583] |
| – | -8.419 | Cc1ccc2ncc(S(=O)(=O)c3ccccc3)c(N3CCN(C)CC3)c2c1 [SJ000083945] |
| 28.8195 | – | CCCN(CCCNc1ccnc2cc(C(F)(F)F)ccc12)Cc1ccccc1 [SJ000361256] |
| 16.5535 | – | CCC(CC)CNCCCNc1ccnc2cc(Cl)ccc12 [SJ000361103] |
| 31.1941 | – | Cc1cc(C)c(CN(CCCNc2ccnc3cc(Cl)ccc23)Cc2ccccc2)c(C)c1 [SJ000361169] |
| – | -10.1441 | CN1CCN(c2c(S(=O)(=O)c3ccc(Cl)cc3)cnc3ccccc23)CC1 [SJ000247306] |
| 9.715 | – | Clc1ccc2c(NCCCN(Cc3ccccc3)Cc3cccnc3Br)ccnc2c1 [SJ000520462] |
| 26.2256 | – | CCCN(CCCNc1ccnc2cc(Cl)ccc12)Cc1c[nH]c2ccccc12 [SJ000523007] |
| 19.2696 | – | Oc1ccccc1CN(CCCNc1ccnc2cc(Cl)ccc12)Cc1ccccc1 [SJ000361167] |
| 4.629 | – | Cc1ccc(CN(CCCNc2ccnc3cc(Cl)ccc23)Cc2ccccc2)s1 [SJ000312673] |
| -0.5383 | – | COc1ccc(CN(CCCNc2ccnc3cc(Cl)ccc23)Cc2ccccc2)cc1OC [SJ000522742] |
| – | -56.5833 | CCc1ccc(S(=O)(=O)c2cnc3ccccc3c2N2CCN(c3ccccc3F)CC2)cc1 [SJ000117079] |
| 22.0104 | – | Fc1cccc(C(F)(F)F)c1CN(CCCNc1ccnc2cc(Cl)ccc12)Cc1ccccc1 [SJ000520467] |
| – | -0.9277 | CCOC(=O)c1cnc2ccc(Cl)cc2c1N1CCN(C)CC1 [SJ000187322] |
| 2.673 | – | CC(C)CCN(CCCNc1ccnc2cc(Cl)ccc12)Cc1ccccc1 [SJ000311183] |
| 15.3375 | – | Clc1ccc2c(NCCCNCc3ccc(Br)s3)ccnc2c1 [SJ000575193] |
| 16.2885 | – | CCCCCN(CCC)CCCNc1ccnc2cc(Cl)ccc12 [SJ000522754] |
| 2.509 | – | FC(F)(F)c1ccccc1CN(CCCNc1ccnc2cc(Cl)ccc12)Cc1ccccc1 [SJ000361168] |
| 27.418 | – | CCCN(CCCNc1ccnc2cc(Cl)ccc12)Cc1cccc(F)c1 [SJ000522758] |
| – | -288.202 | CCCN(CCC)CCCNc1c2ccc(Cl)cc2nc2ccc(OC)cc12 [SJ000520917] |
| -81.9559 | – | CCCN(CCCNc1c2ccc(Cl)cc2nc2ccc(OC)cc12)Cc1cccc(OC)c1O [SJ000520930] |
| – | 17.2064 | O=[N+]([O-])c1ccccc1CN(CCCCNc1ccnc2cc(Cl)ccc12)Cc1ccccc1 [SJ000361200] |
| – | -333.152 | COc1ccc2nc3cc(Cl)ccc3c(NCCCNCc3cccc(C#N)c3)c2c1 [SJ000523037] |

| percent inhibition (TR-FRET) [1] | percent inhibition (TR-FRET) [2] | Structure (SMILES) |
| --- | --- | --- |
| 15.4935 | – | CCCN(CCCNc1ccnc2cc(Cl)ccc12)Cc1c2ccccc2cc2ccccc12 [SJ000522762] |
| – | 2.112 | O=S(=O)(c1ccc(Cl)cc1)c1cnc2ccc(F)cc2c1N1CCN(c2ccccc2)CC1 [SJ000117055] |
| – | -137.318 | CCCN(CCCNc1c2ccc(Cl)cc2nc2ccc(OC)cc12)Cc1ccc(Br)o1 [SJ000520929] |
| – | 22.1466 | Oc1ccccc1CN1CCC(Nc2ccnc3cc(Cl)ccc23)CC1 [SJ000357529] |
| – | -9.5157 | C#CCOCC(O)CN1CCN(c2cc(C(F)(F)F)nc3ccccc23)CC1 (stereo not shown) [SJ000228018] |
| -57.1504 | – | COc1ccc2nc3cc(Cl)ccc3c(NCCCNCc3ccccc3N)c2c1 [SJ000523031] |
| -36.7058 | – | CCCN(CCCNc1c2ccc(Cl)cc2nc2ccc(OC)cc12)Cc1cc(OC(F)(F)F)ccc1OC [SJ000522984] |
| -10.469 | – | Cc1csc(CN(CCCNc2ccnc3cc(Cl)ccc23)Cc2ccccc2)n1 [SJ000520463] |
| – | -54.8642 | Cc1ccc(S(=O)(=O)c2cnc3ccccc3c2N2CCN(c3ccc(F)cc3)CC2)cc1C [SJ000117062] |
| – | -502.358 | COc1ccc2nc3cc(Cl)ccc3c(NCCCNCC3CC3)c2c1 [SJ000361087] |
| 1.3128 | – | CCCN(CCCNc1ccnc2cc(Cl)ccc12)Cc1ccccn1 [SJ000522743] |
| – | 20.7072 | Cc1ccc(CN(CCCCNc2ccnc3cc(Cl)ccc23)Cc2ccccc2)s1 [SJ000312687] |
| – | -0.2733 | CCOc1ccc2ncc(C(=O)c3ccccc3)c(N3CCN(CC)CC3)c2c1 [SJ000247283] |
| – | -8.289 | COc1ccc2ncc(S(=O)(=O)c3ccc(C)c(C)c3)c(N3CCN(c4ccccc4F)CC3)c2c1 [SJ000117078] |
| 32.7178 | – | FC(F)(F)c1ccc2c(NCCCNCc3cc(Br)cs3)ccnc2c1 [SJ000521056] |
| – | -15.9076 | CCOc1ccc2ncc(S(=O)(=O)c3ccccc3)c(N3CCN(Cc4ccccc4)CC3)c2c1 [SJ000247249] |
| – | -141.659 | CCCN(CCCNc1c2ccc(Cl)cc2nc2ccc(OC)cc12)Cc1ccc(F)cc1 [SJ000520946] |
| – | 0.8927 | O=[N+]([O-])c1cccc(CN2CCC(Nc3ccnc4cc(Cl)ccc34)CC2)c1 [SJ000523095] |
| 24.1057 | – | CCCN(CCCNc1ccnc2cc(C(F)(F)F)ccc12)Cc1ccco1 [SJ000361265] |
| 29.7727 | – | Cc1ccc(F)cc1CN(CCCNc1ccnc2cc(Cl)ccc12)Cc1ccccc1 [SJ000520458] |
| – | 1.3128 | COc1cc2ncc(S(=O)(=O)c3ccc(C)cc3)c(N3CCN(C)CC3)c2cc1OC [SJ000083951] |
| -89.0775 | – | CCCN(CCCNc1c2ccc(Cl)cc2nc2ccc(OC)cc12)Cc1cncc(Br)c1 [SJ000522975] |
| 9.598 | – | Clc1ccc2c(NCCCN(Cc3ccccc3)Cc3ccsc3)ccnc2c1 [SJ000312675] |
| – | 8.596 | COc1ccccc1CN1CCC(Nc2ccnc3cc(Cl)ccc23)CC1 [SJ000523097] |
| 0.8927 | – | CCCN(CCCNc1ccnc2cc(C(F)(F)F)ccc12)Cc1nc(C)cs1 [SJ000521010] |
| 21.0583 | – | Clc1ccc2c(NCCCN(Cc3ccccc3)CC3CC3)ccnc2c1 [SJ000357483] |
